Data from ChEMBL document CHEMBL1139907, “Further studies on hepatitis C virus NS5B RNA-dependent RNA polymerase inhibitors toward improved replicon cell activities: benzimidazole and structurally related compounds bearing the 2-morpholinophenyl moiety” (Bioorg Med Chem Lett, 2007).

Test system: Hepatitis C virus
Test: Antiviral activity against HCV in Huh-5-2 cells by replicon assay
Type: functional, organism-based, Hepacivirus hominis
Settings: not given

EC50 [nM]	Structure (SMILES)
550	O=C(O)c1ccc2c(c1)nc(-c1ccc(OCc3cc(N4CCCS4(=O)=O)ccc3N3CCOCC3)cc1F)n2C1CCCCC1
440	CN(C)C(=O)c1ccc(N2CCOCC2)c(COc2ccc(-c3nc4cc(C(=O)O)ccc4n3C3CCCCC3)c(F)c2)c1
800	O=C(O)c1ccc2c(c1)nc(-c1ccc(OCc3cc(N4CCCC4=O)ccc3N3CCCCC3)cc1F)n2C1CCCCC1
1300	COCCN(C)c1ccc(N2CCCC2=O)cc1COc1ccc(-c2nc3cc(C(=O)O)ccc3n2C2CCCCC2)c(F)c1
1200	O=C(O)c1ccc2c(c1)nc(-c1ccc(OCc3cc(Cl)ccc3N3CCOCC3)cc1F)n2C1CCCCC1

Second part, the compound before the results:

Structure (SMILES)	EC50 [nM]
O=C(O)c1ccc2c(c1)nc(-c1ccc(OCc3cc(N4CCCC4=O)ccc3N3CCOCC3)cc1F)n2C1CCCCC1	310
O=C(O)c1ccc2c(c1)cc(-c1ccc(OCc3cc(N4CCCC4=O)ccc3N3CCOCC3)cc1)n2C1CCCCC1	210
CC(C)NC(=O)c1ccc(N2CCOCC2)c(COc2ccc(-c3nc4cc(C(=O)O)ccc4n3C3CCCCC3)c(F)c2)c1	380
CN1CCN(c2ccc(N3CCCC3=O)cc2COc2ccc(-c3nc4cc(C(=O)O)ccc4n3C3CCCCC3)c(F)c2)CC1	1100
O=C(O)c1ccc2c(c1)nc(-c1ccc(OCc3cc(N4CCCC4=O)ccc3N3CCC(C(=O)O)CC3)cc1F)n2C1CCCCC1	3500
CC(=O)N(C)c1ccc(N2CCOCC2)c(COc2ccc(-c3nc4cc(C(=O)O)ccc4n3C3CCCCC3)c(F)c2)c1	370
O=C(O)c1ccc2c(c1)nc(-c1ccc(OCc3cc(N4CCCC4=O)ccc3Oc3ccc(Cl)cc3)cc1F)n2C1CCCCC1	3100

Test system: not listed separately
Test: Cytotoxicity against Huh-5-2 cells
Type: cell-based
Settings: human

Structure (SMILES)	CC50 [nM]
O=C(O)c1ccc2c(c1)nc(-c1ccc(OCc3cc(N4CCCC4=O)ccc3N3CCOCC3)cc1F)n2C1CCCCC1	> 20000
O=C(O)c1ccc2c(c1)nc(-c1ccc(OCc3cc(N4CCCS4(=O)=O)ccc3N3CCOCC3)cc1F)n2C1CCCCC1	> 20000
CN(C)C(=O)c1ccc(N2CCOCC2)c(COc2ccc(-c3nc4cc(C(=O)O)ccc4n3C3CCCCC3)c(F)c2)c1	> 20000
O=C(O)c1ccc2c(c1)nc(-c1ccc(OCc3cc(N4CCCC4=O)ccc3N3CCCCC3)cc1F)n2C1CCCCC1	> 20000
O=C(O)c1ccc2c(c1)cc(-c1ccc(OCc3cc(N4CCCC4=O)ccc3N3CCOCC3)cc1)n2C1CCCCC1	> 20000
CC(C)NC(=O)c1ccc(N2CCOCC2)c(COc2ccc(-c3nc4cc(C(=O)O)ccc4n3C3CCCCC3)c(F)c2)c1	> 20000
COCCN(C)c1ccc(N2CCCC2=O)cc1COc1ccc(-c2nc3cc(C(=O)O)ccc3n2C2CCCCC2)c(F)c1	> 20000
CN1CCN(c2ccc(N3CCCC3=O)cc2COc2ccc(-c3nc4cc(C(=O)O)ccc4n3C3CCCCC3)c(F)c2)CC1	> 20000
O=C(O)c1ccc2c(c1)nc(-c1ccc(OCc3cc(N4CCCC4=O)ccc3N3CCC(C(=O)O)CC3)cc1F)n2C1CCCCC1	> 20000
CC(=O)N(C)c1ccc(N2CCOCC2)c(COc2ccc(-c3nc4cc(C(=O)O)ccc4n3C3CCCCC3)c(F)c2)c1	> 20000
O=C(O)c1ccc2c(c1)nc(-c1ccc(OCc3cc(N4CCCC4=O)ccc3Oc3ccc(Cl)cc3)cc1F)n2C1CCCCC1	> 20000
O=C(O)c1ccc2c(c1)nc(-c1ccc(OCc3cc(Cl)ccc3N3CCOCC3)cc1F)n2C1CCCCC1	> 20000

Test system: Hepacivirus hominis
Test: Ratio of EC50 of HCV to IC50 for HCV NS5B polymerase
Settings: not given

Structure (SMILES)	Ratio
O=C(O)c1ccc2c(c1)nc(-c1ccc(OCc3cc(N4CCCC4=O)ccc3N3CCOCC3)cc1F)n2C1CCCCC1	4.7
O=C(O)c1ccc2c(c1)nc(-c1ccc(OCc3cc(N4CCCS4(=O)=O)ccc3N3CCOCC3)cc1F)n2C1CCCCC1	7.7
CN(C)C(=O)c1ccc(N2CCOCC2)c(COc2ccc(-c3nc4cc(C(=O)O)ccc4n3C3CCCCC3)c(F)c2)c1	6.5
O=C(O)c1ccc2c(c1)nc(-c1ccc(OCc3cc(N4CCCC4=O)ccc3N3CCCCC3)cc1F)n2C1CCCCC1	5.3
O=C(O)c1ccc2c(c1)cc(-c1ccc(OCc3cc(N4CCCC4=O)ccc3N3CCOCC3)cc1)n2C1CCCCC1	7
CC(C)NC(=O)c1ccc(N2CCOCC2)c(COc2ccc(-c3nc4cc(C(=O)O)ccc4n3C3CCCCC3)c(F)c2)c1	7.9
COCCN(C)c1ccc(N2CCCC2=O)cc1COc1ccc(-c2nc3cc(C(=O)O)ccc3n2C2CCCCC2)c(F)c1	5
CN1CCN(c2ccc(N3CCCC3=O)cc2COc2ccc(-c3nc4cc(C(=O)O)ccc4n3C3CCCCC3)c(F)c2)CC1	8.5
O=C(O)c1ccc2c(c1)nc(-c1ccc(OCc3cc(N4CCCC4=O)ccc3N3CCC(C(=O)O)CC3)cc1F)n2C1CCCCC1	19
CC(=O)N(C)c1ccc(N2CCOCC2)c(COc2ccc(-c3nc4cc(C(=O)O)ccc4n3C3CCCCC3)c(F)c2)c1	7.3
O=C(O)c1ccc2c(c1)nc(-c1ccc(OCc3cc(N4CCCC4=O)ccc3Oc3ccc(Cl)cc3)cc1F)n2C1CCCCC1	13
O=C(O)c1ccc2c(c1)nc(-c1ccc(OCc3cc(Cl)ccc3N3CCOCC3)cc1F)n2C1CCCCC1	12

Target: not listed separately
Test: Inhibition of HCV NS5B polymerase
Set-up: species or system Hepacivirus hominis
Settings: not given

IC50 [nM]	Structure (SMILES)
71	O=C(O)c1ccc2c(c1)nc(-c1ccc(OCc3cc(N4CCCS4(=O)=O)ccc3N3CCOCC3)cc1F)n2C1CCCCC1
68	CN(C)C(=O)c1ccc(N2CCOCC2)c(COc2ccc(-c3nc4cc(C(=O)O)ccc4n3C3CCCCC3)c(F)c2)c1
150	O=C(O)c1ccc2c(c1)nc(-c1ccc(OCc3cc(N4CCCC4=O)ccc3N3CCCCC3)cc1F)n2C1CCCCC1
260	COCCN(C)c1ccc(N2CCCC2=O)cc1COc1ccc(-c2nc3cc(C(=O)O)ccc3n2C2CCCCC2)c(F)c1
100	O=C(O)c1ccc2c(c1)nc(-c1ccc(OCc3cc(Cl)ccc3N3CCOCC3)cc1F)n2C1CCCCC1

The remaining lines, values behind:

Structure (SMILES)	IC50 [nM]
O=C(O)c1ccc2c(c1)nc(-c1ccc(OCc3cc(N4CCCC4=O)ccc3N3CCOCC3)cc1F)n2C1CCCCC1	66
O=C(O)c1ccc2c(c1)cc(-c1ccc(OCc3cc(N4CCCC4=O)ccc3N3CCOCC3)cc1)n2C1CCCCC1	30
CC(C)NC(=O)c1ccc(N2CCOCC2)c(COc2ccc(-c3nc4cc(C(=O)O)ccc4n3C3CCCCC3)c(F)c2)c1	48
CN1CCN(c2ccc(N3CCCC3=O)cc2COc2ccc(-c3nc4cc(C(=O)O)ccc4n3C3CCCCC3)c(F)c2)CC1	130
O=C(O)c1ccc2c(c1)nc(-c1ccc(OCc3cc(N4CCCC4=O)ccc3N3CCC(C(=O)O)CC3)cc1F)n2C1CCCCC1	180
CC(=O)N(C)c1ccc(N2CCOCC2)c(COc2ccc(-c3nc4cc(C(=O)O)ccc4n3C3CCCCC3)c(F)c2)c1	51
O=C(O)c1ccc2c(c1)nc(-c1ccc(OCc3cc(N4CCCC4=O)ccc3Oc3ccc(Cl)cc3)cc1F)n2C1CCCCC1	230
